Series [1] deals with hispidin-synthase and caffeylpyruvate hydrolase with Neonothopanus nambi luciferase and hispidin hydroxylase. Put plainly: Luminescence with recombinant hispidin-synthase, caffeylpyruvate hydrolase, luciferase and hispidin hydroxylase. The format is biochemical. The note with it: 0.2 μM. On the procedure:
The obtained enzymes were used for obtaining luminescence (bioluminescence) in reaction with Neonothopanus nambi luciferase and hispidin hydroxylase, obtained according to Example 4. 5 μl of each isolated recombinant protein solution were put into a glass tube, comprising 100 μl of the buffer (0.2 M of Na-phosphate buffer, 0.5 M of Na2SO4, 0.1% dodecylmaltoside (DDM) pH 8.0), 1 mM of NADPH (Sigma-Aldrich, USA), 10 mM of ATP (ThermoFisher Scientific, USA), 1 mM of CoA (Sigma-Aldrich, USA), 1 mM of malonyl-CoA (Sigma-Aldrich, USA) and 0.2 μM of one of 3-arylacrylic acids: paracoumaric acid (Sigma-Aldrich, USA), cinnamic acid (Sigma-Aldrich, USA) or ferulic acid (Abcam, USA). In the other experiment instead of substituted 3-arylacrylic acid the analogues of fungal oxyluciferin—(2E,5E)-2-hydroxy-6-(4-hydroxyphenyl)-4-oxohexa-2,5-diene, (2E,5E)-2-hydroxy-4-oxo-6-phenylhexa-2,5-diene, or (2E,5E)-2-hydroxy-6-(4-hydroxy-3-methoxyphenyl)-4-oxohexa-2,5-diene acids—also at concentration of 0.2 μM were put into a glass tube. The glass tubes were placed into a luminometer.

Series [2] relates to luciferase and hispidin hydroxylase of Neonothopanus nambi. Kind of series: Hispidin hydroxylase with hispidin analogues in cell lysate. It counts as biochemical. The following applies: 660 μg/ml, 1 mM NADPH, pH 8.0. On the procedure: HEK293NT cells, expressing luciferase and hispidin hydroxylase of Neonothopanus nambi, obtained according to Example 2, were rinsed from Petri dishes 24 hours after transfection with Versene solution laced with 0.025% of trypsin, the medium was replaced by phosphate-buffered saline with pH 8.0 by centrifugation, the cells were resuspended, lysed by ultrasound in Bioruptor (Diagenode, Belgium) with in 7 minutes at 0° C. in conditions recommended by the manufacturer, and 1 mM of NADPH (Sigma-Aldrich, USA), and also hispidin or one of its analogues were added to the medium: (E)-4-hydroxy-6-(4-hydroxystyryl)-2H-pyran-2-one, (E)-6-(2-(1H-indol-3-yl)vinyl)-4-hydroxy-2H-pyran-2-one, (E)-6-(2-(1,2,3,5,6,7-hexahydropyrido[3,2,1-ij]quinolin-9-yl)vinyl)-4-hydroxy-2H-pyran-2-one, E)-6-(4-(diethylamino)styryl)-4-hydroxy-2H-pyran-2-one, or (E)-4-hydroxy-6-(2-(6-hydroxynaphthalene-2-yl)vinyl)-2H-pyran-2-one at concentration of 660 μg/ml. Bioluminescence spectra were detected by spectrofluorometer Varian Cary Eclipse. […] Depending on luciferin used the expected displacement of luminescence peak was observed.

Series [3] concerns recombinant hispidin hydroxylase from Neonothopanus nambi. Put plainly: HPLC analysis of hydroxylation by recombinant hispidin hydroxylase. The format is biochemical. The following applies: 0.2 μM substrate, 1 mM NADPH, 30 minutes. On the procedure: The isolated recombinant hispidin hydroxylase from Neonothopanus nambi, obtained according to Example 4, was added to reaction mixtures comprising 1 mM of NADPH and 0.2 μM of hispidin, (E)-4-hydroxy-6-styryl-2H-pyran-2-one or (E)-4-hydroxy-6-(4-hydroxystyryl)-2H-pyran-2-one in 100 μl of the buffer (0.2 M of Na-phosphate buffer, 0.5 M of Na2SO4, 0.1% dodecylmaltoside (DDM) pH 8.0). In 30 minutes, the reaction mixture was analyzed by HPLC using synthetic luciferins as standards.

Series [4] deals with Pichia pastoris GS115 yeast cells expressing luciferase, hispidin hydroxylase and coumarate-CoA ligase 1. Kind of series: Screening of PKS for hispidin-synthase activity in yeast colonies sprayed with caffeic acid. It counts as cell-based. The following applies: colonies sprayed with caffeic acid solution. An excerpt:
The selected nucleotide sequences for expression in Pichia pastoris yeast cells and Nicotiana benthamiana plant cells were optimized. The resulting nucleic acids were obtained synthetically and cloned into pGAPZ vector and used for verifying ability of the expressed proteins to synthesize hispidin.
For this purpose, in genome of Pichia pastoris GS115 yeast line, constitutively expressing Neonothopanus nambi luciferase and hispidin hydroxylase, obtained according to Example 1, there was additionally introduced pGAPZ plasmid, comprising gene of
Arabidopsis thaliana coumarate-CoA ligase 1 (which nucleotide and amino acid sequence are shown in SEQ ID NOs: 140, 141), also obtained by oligonucleotide synthesis. The plasmid was linearized at restriction site AvrII and used for transformation into Pichia pastoris GS115 cells.
The obtained yeast cells, constitutively expressing Neonothopanus nambi luciferase and hispidin hydroxylase and Arabidopsis thaliana coumarate-CoA ligase 1, were […] by plasmids comprising coding PKS sequences, and dispersed in Petri dishes with RDB medium, comprising 1 M of sorbitol, 2% (weight/volume) of glucose, 1.34% (weight/volume) of yeast nitrogen base (YNB), 0.005% (weight/volume) of amino acids mixture, 0.00004% (weight/volume) of biotin and 2% (weight/volume) of agar. To identify enzymes having hispidin-synthase activity, the obtained colonies were sprayed with caffeic acid solution, detecting hispidin-synthase presence in cells by occurrence of luminescence. Luminescence emitted by colonies was detected by means of IVIS Spectrum CT (Perkin Elmer, USA). Yeast line constitutively expressing luciferase, hispidin hydroxylase and coumarate-CoA ligase 1, and also wild yeast cells were used as negative control. […] Amino acid sequences coded by then are shown in SEQ ID NOs: 119, 121, 123, 125, 127, 129, 131, 133, 135, 137, 139 respectively.

On to `O=C(O)/C=C/c1ccc(O)cc1` [paracoumaric acid], for which the luminescence in reaction result in series [1] was “resulted in luminescence”.

In the case of `O=C(/C=C/c1ccc(O)cc1)/C=C(/O)C(=O)O` [(2E,5E)-2-hydroxy-6-(4-hydroxyphenyl)-4-oxohexa-2,5-diene acid], the luminescence in reaction result in series [1] was “resulted in luminescence”. As for `O=C(O)/C=C/c1ccccc1` [cinnamic acid], the luminescence in reaction result in series [1] is “resulted in luminescence”.

As for `O=c1cc(O)cc(/C=C/c2cc3c4c(c2)CCCN4CCC3)o1` [(E)-6-(2-(1,2,3,5,6,7-hexahydropyrido[3,2,1-ij]quinolin-9-yl)vinyl)-4-hydroxy-2H-pyran-2-one], the Luminescence in lysates entry in series [2] was “Luminescence in lysates was observed”. With `COc1cc(/C=C/C(=O)O)ccc1O` [ferulic acid], the luminescence in reaction result in series [1] was “resulted in luminescence”. With `O=c1cc(O)cc(/C=C/c2ccccc2)o1` [(E)-4-hydroxy-6-styryl-2H-pyran-2-one], the “HPLC detection of hydroxylated product” value in series [3] is reported as “occurrence of peaks corresponding to 3d position hydroxylated derivatives”. As for `O=C(/C=C/c1ccccc1)/C=C(/O)C(=O)O` [(2E,5E)-2-hydroxy-4-oxo-6-phenylhexa-2,5-diene acid], the luminescence in reaction result in series [1] is recorded as “resulted in luminescence”. For `COc1cc(/C=C/C(=O)/C=C(/O)C(=O)O)ccc1O` [(2E,5E)-2-hydroxy-6-(4-hydroxy-3-methoxyphenyl)-4-oxohexa-2,5-diene acid], in series [1], the luminescence in reaction result is recorded as “resulted in luminescence”. With `O=c1cc(O)cc(/C=C/c2ccc(O)cc2)o1` [(E)-4-hydroxy-6-(4-hydroxystyryl)-2H-pyran-2-one], the Luminescence in lysates entry in series [2] was “Luminescence in lysates was observed”. Further, the “HPLC detection of hydroxylated product” value in series [3] is recorded as “occurrence of peaks corresponding to 3d position hydroxylated derivatives”. For `CCN(CC)c1ccc(/C=C/c2cc(O)cc(=O)o2)cc1` [(E)-6-(4-(diethylamino)styryl)-4-hydroxy-2H-pyran-2-one], the Luminescence in lysates result in series [2] is on record as “Luminescence in lysates was observed”.

Consider `O=c1cc(O)cc(/C=C/c2c[nH]c3ccccc23)o1` [(E)-6-(2-(1H-indol-3-yl)vinyl)-4-hydroxy-2H-pyran-2-one], for which the Luminescence in lysates result in series [2] is “Luminescence in lysates was observed”. Consider `O=c1cc(O)cc(/C=C/c2ccc3cc(O)ccc3c2)o1` [(E)-4-hydroxy-6-(2-(6-hydroxynaphthalene-2-yl)vinyl)-2H-pyran-2-one], for which the Luminescence in lysates entry in series [2] is recorded as “Luminescence in lysates was observed”.

B1: SEQ ID NO: 133: plant type III polyketide synthase (PKS) (protein, listed as Rheum tataricum)
chain: MAPEESRHAETAVNRAATVLAIGTANPPNCYYQADFPDFYFRATNSDHLTHLKQKFKRICEKSMIEKRYLHLTEEILKENPNIASFEAPSLDVRHNIQVKEVVLLGKEAALKAINEWGQPKSKITRLIVCCIAGVDMPGADYQLTKLLGLQLSVKRFMFYHLGCYAGGTVLRLAKDIAENNKEARVLIVRSEMTPICFRGPSETHIDSMVGQAIFGDGAAAVIVGANPDLSIERPIFELISTSQTIIPESDGAIEGHLLEVGLSFQLYQTVPSLISNCIETCLSKAFTPLNISDWNSLFWIAHPGGRAILDDIEATVGLKKEKLKATRQVLNDYGNMSSACVFFIMDEMRKKSLANGQVTTGEGLKWGVLFGFGPGVTVETVVLSSVPLIT
B1: in series [4], the hispidin-synthase activity result is given as “had hispidin-synthase activity”.

B2: SEQ ID NO: 131: plant type III polyketide synthase (PKS) (protein)
chain: MATEEMKKLATVMAIGTANPPNCYYQADFPDFYFRVTNSDHLINLKQKFKRLCENSRIEKRYLHVTEEILKENPNIAAYEATSLNVRHKMQVKGVAELGKEAALKAIKEWGQPKSKITHLIVCCSAGVDMPGADYQLTKLLDLDPSVKRFMFYHLGCYAGGTVLRLAKDIAENNKGARVLIVCSEMTTTCFRGPSETHLDSMIGQAILGDGAAAVIVGADPDLTVERPIFELVSTAQTIVPESHGAIEGHLLESGLSFHLYKTVPTLISNNIKTCLSDAFTPLNISDWNSLFWIAHPGGPAILDQVTAKVGLEKEKLKVTRQVLKDYGNMSSATVFFIMDEMRKKSLENGQATTGEGLEWGVLFGFGPGITVETVVLRSVPVIS
modifications: Amino acid sequence of the mutant L132S PKS from Rheum palmatum, optimized for expression in Nicotiana benthamiana
For B2, the hispidin-synthase activity result in series [4] was “had hispidin-synthase activity”.

B3: SEQ ID NO: 135: plant type III polyketide synthase (PKS) (protein, listed as Wachendorfia thyrsiflora)
chain: MASTEGIQAYRNNMAEGPATIMAIGTANPPNVVDASTFPDYYWRVTNSEHLSPEYRVKLKRICERSSIRKRHLVLTEQLLKENPTLTTYVDASYDERQSIVLDAVPKLACEAAAKAIKEWGRPKTDITHMVVCTGAGVDVPGVDYKMMNLLGLPPTVNRVMLYNVGCHASGTVLRIAKDLAENNKGARVLVVSSEVSVMFFRGPAEGDVEILLGQALFGDGSAAIIVGADPIEGVEKPIFQIFSASQMTLPEGEHLVAGHLRELGLTFHLKPQLPNTVSSNIHKPLKKAFEPLNITDWNSIFWIVHPGGRAILDQVQEKIGLEENKLDVSRYVLAENGNMMSASVFFIMDEMRKRSAAQGCSTTGEGHEWGVLFGFGPGLSIETVVLHSVPLSI
Turning to B3, the hispidin-synthase activity result in series [4] is “had hispidin-synthase activity”.

The record behind these values is patent US20240117385A1, “ENZYMES OF LUCIFERIN BIOSYNTHESIS AND USE THEREOF” (LIGHT BIO, INC., priority 2018, published 2024).
